Data as given in patent US5559209A, “Regulator regions of G proteins” (The General Hospital Corporation, priority 1993, dated 1996).
Where no end group is shown, it is not given here.

How the values were obtained:
[1] = test system: somatostatin receptor/K+ channel linkage in human growth hormone-secreting pituitary adenoma cells; assay: Somatostatin-induced K+ currents, whole cell patch clamp; assay type: cell-based; settings: 100 nM somatostatin, absence of anticouplone peptides
Experimental: Inhibition Of somatostatin receptor function. It is known that somatostatin induces K^+ channel activation in a manner sensitive to pertussis toxin in human growth hormone-secreting tumors (Yamashita et al., Am. J. Physiol. 253:E28-E32, 1987). The effect of each of ACGi2, ACGi3, ACGs, ACGo1, and ACGo2 on somatostatin-induced K^+ currents in human pituitary cells was measured using the patch clamp technique, as described below.
Three human growth hormone-secreting pituitary adenomas were obtained at transsphenoidal surgery. The tissue was minced into small pieces (less than 1 mm in diameter) and was treated with 1000 units/ml dispase (Wako, Japan). These dissociated cells (≈10^5 cells/ml) were seeded onto 35-mm culture dishes. […]
A whole cell variation of the patch electrode voltage clamp technique was used to record membrane currents (Hamill et al., Pfluger Arch. 391:85-100, […]). […] The liquid junction potential between the extracellular solution and the internal solution was directly measured using a 3M KCl electrode as a reference. […]
The intracellular solution that filled the inside of the pipet portion of the apparatus contained one of the following anticouplone peptides at 100 μM: ACGi2, ACGi3, ACGs, ACGo1, or ACGo2. The exterior of the cell was bathed with the extracellular solution containing 100 nM somatostatin while the outward K^+ current was monitored. […]

[2] = test system: NRK (rat renal fibroblast) cells; assay: TGFβ-induced fibronectin secretion, immunoblot; assay type: cell-based; settings: 50 pM TGFβ, 12 hours
Text: Inhibition of TGFβ-induced matrix formation. The secretion of matrix proteins (in particular, fibronectin) by kidney, lung and liver cells may lead to sclerosis of those organs. Transforming growth factor-β (TGFβ), which stimulates the secretion of fibronectin, may therefore contribute to such sclerosis. Since the TGFβ receptor is a Go2 -coupled receptor, the ability of ACGo2 to inhibit the TGFβ-induced stimulation of fibronectin secretion by NRK (rat renal fibroblast) cells (Ignotz and Massague, J. Biol. Chem. 261:4337-4345, 1986) was assayed.
NRK cells were cultured in RPMI 1640 supplemented with 5% FCS in a CO2 -incubator at 37° C. The medium was replaced every two days. Cells were regularly subcultured by trypsin-EDTA before reaching confluency. In the experiments described below, the cells were grown in monolayer to confluency in 6-well culture plates (Corning, N.Y.), then incubated for 12 hours with RPMI 1640 plus 0.5% FCS, and for a further 12 hours with RPMI 1640 plus 0.5% FCS in the presence or absence of 50 pM TGFβ (R & D System, Minneapolis, Minn.), to which was added 100 μM ACGi2, ACGs, ACGo2, or ACGq. The medium from each well was collected and frozen at -20° C. until assay. Fibronectin secreted into each sample of medium was assessed by immunoblot as follows: […]

Gi2 = target: T1, Gi2 (Bos taurus, UniProt A7MBH9); assay: GTPγS binding assay, peptide 14-induced Gi2 activation; assay type: biochemical, bovine; settings: 10 μM peptide variant, 10 nM Gi2, 30 μM peptide 14
T1 construct: trimeric Gi2 (i.e., Gi2 αβγ) purified from bovine brain to near homogeneity; from tissue; host or cells: bovine brain
T1 sequence (A7MBH9 2-355 limits assumed): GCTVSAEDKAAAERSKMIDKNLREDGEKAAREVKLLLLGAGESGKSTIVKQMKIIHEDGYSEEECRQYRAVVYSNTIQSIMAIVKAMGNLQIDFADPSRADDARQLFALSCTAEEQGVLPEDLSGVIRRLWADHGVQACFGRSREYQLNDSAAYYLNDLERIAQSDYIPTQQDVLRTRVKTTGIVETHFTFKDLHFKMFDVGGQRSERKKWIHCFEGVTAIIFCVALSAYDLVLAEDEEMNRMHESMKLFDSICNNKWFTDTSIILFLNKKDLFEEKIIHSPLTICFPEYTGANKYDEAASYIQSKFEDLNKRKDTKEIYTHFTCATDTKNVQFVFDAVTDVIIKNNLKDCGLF
T1 sequence (P62871 2-340 partner limits assumed): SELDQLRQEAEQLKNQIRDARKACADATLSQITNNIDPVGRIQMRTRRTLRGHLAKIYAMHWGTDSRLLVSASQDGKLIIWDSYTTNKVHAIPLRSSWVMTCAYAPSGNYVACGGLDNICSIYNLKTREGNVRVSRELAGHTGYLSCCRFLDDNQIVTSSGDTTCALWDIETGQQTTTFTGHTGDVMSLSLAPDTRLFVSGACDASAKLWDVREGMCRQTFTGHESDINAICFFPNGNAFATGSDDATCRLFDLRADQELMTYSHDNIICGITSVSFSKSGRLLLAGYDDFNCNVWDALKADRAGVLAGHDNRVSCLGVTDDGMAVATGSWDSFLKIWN
T1 sequence (P63212 2-68 partner limits assumed): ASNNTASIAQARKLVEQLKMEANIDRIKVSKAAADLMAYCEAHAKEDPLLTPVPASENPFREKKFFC
Experimental: Materials and Methods The in vitro assays described below utilize the couplone portion of each of a number of G-coupled receptors, instead of an intact receptor molecule, as a means for activating the corresponding anticouplone or intact G-protein. Except as noted below, Gi2 used in this study was trimeric Gi2 (i.e., Gi2 αβγ) purified from bovine brain to near homogeneity (Katada et al., FEBS Lett. 213:353-358 (1987), stored in buffer A (20 mM hepes/NaOH (pH 7.4), 1 mM EDTA, and 0.7% CHAPS), and diluted≥10 fold for assays. The Gi2 used for the reconstitution experiment was trimeric Gi2 purified from bovine spleen to homogeneity and dissolved in buffer B (Morishita et al., 1989). Gi3 α (Morishita et al., Biochem. Biophys. Res. Commun. 172:249-255 (1990), was purified from bovine spleen and used in combination with 1.5-fold concentrated Gβγ (Katada et al., 1987). This preparation of Gi3 α was 10-20% contaminated by Gi1 α, but not by other G proteins. Trimeric Gs and Gβγ purified from bovine brain to near homogeneity (Katada et al., 1987) were also stored in buffer A.
GTPγS binding Assay--GTPγS binding to G proteins was assayed at 37° C. in 20 mM Hepes/NaOH buffer (pH 7.4) containing 130 μM MgCl2, 110 μM EDTA and 60 nM [^35 S]GTPγS, as described previously (Okamoto et al., 1990). GTPγS binding to polypeptides was negligible. The total amount of G protein was measured as maximal GTPγS binding at room temperature, as described (Okamoto et al., Cell 67:723-730, 1991a). [^35 S]GTPγS was purchased from DuPont-New England Nuclear. Binding of GTPγS to G proteins obeyed first-order kinetics according to the equation ln[(BT-B)/BT]=-kapp t, where B is the binding at time t and BT is the total binding observable at an infinite time. Thus, the apparent first-order rate constant for GTPγS binding (kapp), which is equal to the slope of the tangent to the GTPγS binding curve at time 0 and represents the actual GTPγS binding rate, was calculated from this equation.
In the experiment illustrated in FIG. 1A, 10 nM Gi2 was incubated with 30 μM peptide 14 (RVGLVRGEKARKGK; SEQ ID NO: 27), the couplone portion of the IGF-II receptor, in the presence of various concentrations of (.quadrature.) ACGi2 (DAVTDVIIKNNLKDC; SEQ ID NO: 3), (567 ) the control Gi2 α Glu297-Asp310 peptide (EAASYIQSKFEKLN; SEQ ID NO: 18), or (.diamond.) the control Gi2 α Lys346-Phe355 peptide (KNNLKDCGLF; SEQ ID NO: 19) for 5 min under the GTPγS binding assay conditions described above, and GTPγS binding to G proteins was measured. The effect of ACGi2 on Gi2 in the absence of peptide 14 is indicated by .box-solid.. Percent stimulation of GTPγS binding was calculated by subtracting the basal fractional binding and dividing by the stimulated fractional binding observed in the absence of ACGi2. The basal fractional binding (=0%) was 0.39 mol GTPγS binding/mol Gi /5 min (5 min^-1). The 100% increase represents the GTPγS binding of 0.85 (5 min^-1). Values in all figures represent the mean ±S.E. of three experiments.
To verify the notion that ACGi2 acts on Gi2 itself, and not on receptor sequences, two series of experiments were performed. First, the dose-response curve for peptide 14 action on Gi2 in the presence of various concentrations of ACGi2 was generated (FIG. 2A). Following incubation of 10 nM Gi2 with various concentrations of peptide 14 in the absence (.quadrature.) or presence of 10 μM (.diamond-solid.) or 30 μM (.box-solid.) ACGi2 for 5 min, GTPγS binding was assayed; fractional GTPγS binding to Gi2 is indicated in the figure.
The second series of experiments investigated the effect of ACGi2 on lower concentrations of Gi2 that had been activated by peptide 14 to the same extent (FIG. 2B). 1 nM Gi2 was incubated for 5 min with 3 μM peptide 14 in the presence of various concentrations of ACGi2, and GTPγS binding was measured. The fractional GTPγS binding at 0% and 100% in this experiment was 0.40 and 0.55 (5 min^-1), respectively. […]

T cell receptor = assay: OKT3-induced polyphosphoinositide turnover in Jurkat cells; assay type: cell-based, human; settings: OKT3 1:100 for 5 min, no peptide
Experimental: Inhibition of T cell receptor function with ACGq. T cell receptor stimulation by monoclonal antibody OKT^3 in Jurkat cells, a line of human T cells, induces measurable polyphosphoinositide (PI) turnover. 10^7 cells were labelled with 5 μCi/ml [^3 H]myoinositol in inositol-free RPMI1640 for 12 hours. After incubating the cells with 500 μM ACGq, samples containing 5×10^5 cells were then exposed to the monoclonal antibody OKT3 (Ortho) at 1:100 dilution for 5 min. Perchloric acid was added to a final concentration of 10% to lyse the cells and terminate the reaction. Cell lysates were collected into tubes and brought to pH>8 by the addition of KOH. Following centrifugation of the lysates, the supernatants were passed over a DOWX anion exchange column (Muromachi Chemicals, Japan) to separate inositol polyphosphates (IPs) from other inositol metabolites, and the amount of [^3 H] label in the inositol trisphosphate (IP3) fraction assessed.

Compound	inhibition at 10 µM (Gi2) [%]	also measured
C[C@H](N)C(=O)NCC(=O)N[C@H]1CSSC[C@@H](C(=O)O)NC(=O)[C@H](CO)NC(=O)[C@H]([C@@H](C)O)NC(=O)[C@H](Cc2ccccc2)NC(=O)[C@H]([C@@H](C)O)NC(=O)[C@H](CCCCN)NC(=O)[C@H](Cc2c[nH]c3ccccc23)NC(=O)[C@H](Cc2ccccc2)NC(=O)[C@H](Cc2ccccc2)NC(=O)[C@H](CC(N)=O)NC(=O)[C@H](CCCCN)NC1=O [somatostatin]		K+ current induced over baseline [1]: approximately 20 pA
TGFβ: Transforming growth factor-β, which stimulates the secretion of fibronectin		fibronectin secreted by cells exposed to TGFβ [2]: significant amount of fibronectin is secreted
DAVTDVIIKANLKDC [A3 variant, DAVTDVIIKANLKDC]	≥ 30	
OKT3: monoclonal antibody OKT3 (Ortho) stimulating the T cell receptor		[3H] incorporation into IP relative to control cells not exposed to OKT3 (T cell receptor): 157%

The next lines start with results.

inhibition at 10 µM (Gi2) [%]	Compound	also measured
≥ 80	DAVTAVIIKNNLKDC [A2 variant, DAVTAVIIKNNLKDC]	
≥ 80	DAVTDVIIKNNLKAC [A5 variant, DAVTDVIIKNNLKAC]	
≥ 30	DAVTDVIIKNNLKD [del C variant, DAVTDVIIKNNLKD]	
≥ 30	DAVTDVIIK [p9 variant, DAVTDVIIK]	
≥ 30	AAVTDVIIKNNLKDC [A1 variant, AAVTDVIIKNNLKDC]	
